Test results from the supplement of paper PMC10307832.

Columns and labels:
Assay in all cases: relative viability (nuclei count vs DMSO), 5 days (fraction); higher = more cells survive
NCI-H1563 = test system: NCI-H1563
Summary of the method: (§1)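 Dosing by pin tool came one day after lung cancer cell lines were seeded in 1536-well plates, using either one drug or a fixed anchor-drug dose plus five library-drug doses (not always all listed) in √10 steps. After 5 days, nuclei were counted on 4× images. Relative viability is treated-well nuclei count divided by vehicle-well nuclei count, and values are medians of duplicate plates.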

NCI-H1666 = test system: NCI-H1666
Summary of the method: as §1

HCC-78 = test system: HCC-78
Summary of the method: as §1

NCI-H322M = test system: NCI-H322M
Summary of the method: as §1

RERF-LC-KJ = test system: RERF-LC-KJ
Summary of the method: as §1

PC-14 = test system: PC-14
Summary of the method: as §1

HCC-827 = test system: HCC-827
Summary of the method: as §1

LK-2 = test system: LK-2
Summary of the method: as §1

EKVX = test system: EKVX
Summary of the method: as §1

SW 1573 = test system: SW 1573
Summary of the method: as §1

EMC-BAC-2 = test system: EMC-BAC-2
Summary of the method: as §1

NCI-H1975 = test system: NCI-H1975
Summary of the method: as §1

SK-LU-1 = test system: SK-LU-1
Summary of the method: as §1

NCI-H23 = test system: NCI-H23
Summary of the method: as §1

NCI-H2405 = test system: NCI-H2405
Summary of the method: as §1

LU99A = test system: LU99A
Summary of the method: as §1

NCI-H2126 = test system: NCI-H2126
Summary of the method: as §1

EPLC-272H = test system: EPLC-272H
Summary of the method: as §1

COc1cc2nccc(Oc3ccc(NC(=O)Nc4cc(C)on4)c(Cl)c3)c2cc1OC [Tivozanib] + CS(=O)(=O)CCNCc1ccc(-c2ccc3ncnc(Nc4ccc(OCc5cccc(F)c5)c(Cl)c4)c3c2)o1 [Lapatinib] (partner 2 µM)
relative viability (NCI-H1563; first compound 0.005 µM): 0.848 | relative viability (NCI-H1563; first compound 0.01581 µM): 0.985 | relative viability (NCI-H1563; first compound 0.05 µM): 0.938 | relative viability (NCI-H1563; first compound 0.1581 µM): 0.856 | relative viability (NCI-H1563; first compound 0.5 µM): 0.796 | relative viability (NCI-H1666; first compound 0.005 µM): 0.561 | relative viability (NCI-H1666; first compound 0.01581 µM): 0.621 | relative viability (NCI-H1666; first compound 0.05 µM): 0.641 | relative viability (NCI-H1666; first compound 0.1581 µM): 0.607 | relative viability (NCI-H1666; first compound 0.5 µM): 0.84 | relative viability (HCC-78; first compound 0.005 µM): 0.683 | relative viability (HCC-78; first compound 0.01581 µM): 0.772 | relative viability (HCC-78; first compound 0.05 µM): 0.851 | relative viability (HCC-78; first compound 0.1581 µM): 1.58 | relative viability (HCC-78; first compound 0.5 µM): 0.455 | relative viability (NCI-H322M; first compound 0.005 µM): 0.574 | relative viability (NCI-H322M; first compound 0.01581 µM): 0.649 | relative viability (NCI-H322M; first compound 0.05 µM): 0.615 | relative viability (NCI-H322M; first compound 0.1581 µM): 0.525 | relative viability (NCI-H322M; first compound 0.5 µM): 0.65 | relative viability (RERF-LC-KJ; first compound 0.005 µM): 0.816 | relative viability (RERF-LC-KJ; first compound 0.01581 µM): 0.843 | relative viability (RERF-LC-KJ; first compound 0.05 µM): 0.902 | relative viability (RERF-LC-KJ; first compound 0.1581 µM): 0.819 | relative viability (RERF-LC-KJ; first compound 0.5 µM): 0.834 | relative viability (PC-14; first compound 0.005 µM): 0.245 | relative viability (PC-14; first compound 0.01581 µM): 0.325 | relative viability (PC-14; first compound 0.05 µM): 0.308 | relative viability (PC-14; first compound 0.1581 µM): 0.255 | relative viability (PC-14; first compound 0.5 µM): 0.332 | relative viability (HCC-827; first compound 0.005 µM): 0.244 | relative viability (HCC-827; first compound 0.01581 µM): 0.181 | relative viability (HCC-827; first compound 0.05 µM): 0.204 | relative viability (HCC-827; first compound 0.1581 µM): 0.233 | relative viability (HCC-827; first compound 0.5 µM): 0.842 | relative viability (LK-2; first compound 0.005 µM): 0.951 | relative viability (LK-2; first compound 0.01581 µM): 0.842 | relative viability (LK-2; first compound 0.05 µM): 0.918 | relative viability (LK-2; first compound 0.1581 µM): 0.742 | relative viability (LK-2; first compound 0.5 µM): 0.683 | relative viability (EKVX; first compound 0.005 µM): 0.224 | relative viability (EKVX; first compound 0.01581 µM): 0.199 | relative viability (EKVX; first compound 0.05 µM): 0.216 | relative viability (EKVX; first compound 0.1581 µM): 0.182 | relative viability (EKVX; first compound 0.5 µM): 0.192 | relative viability (SW 1573; first compound 0.005 µM): 0.909 | relative viability (SW 1573; first compound 0.01581 µM): 1.25 | relative viability (SW 1573; first compound 0.05 µM): 1.16 | relative viability (SW 1573; first compound 0.1581 µM): 0.856 | relative viability (SW 1573; first compound 0.5 µM): 1.08 | relative viability (EMC-BAC-2; first compound 0.005 µM): 0.954 | relative viability (EMC-BAC-2; first compound 0.01581 µM): 0.875 | relative viability (EMC-BAC-2; first compound 0.05 µM): 0.871 | relative viability (EMC-BAC-2; first compound 0.1581 µM): 0.675 | relative viability (EMC-BAC-2; first compound 0.5 µM): 0.908 | relative viability (NCI-H1975; first compound 0.005 µM): 0.792 | relative viability (NCI-H1975; first compound 0.01581 µM): 0.871 | relative viability (NCI-H1975; first compound 0.05 µM): 0.864 | relative viability (NCI-H1975; first compound 0.1581 µM): 0.755 | relative viability (NCI-H1975; first compound 0.5 µM): 0.723 | relative viability (SK-LU-1; first compound 0.005 µM): 0.827 | relative viability (SK-LU-1; first compound 0.01581 µM): 0.809 | relative viability (SK-LU-1; first compound 0.05 µM): 0.895 | relative viability (SK-LU-1; first compound 0.1581 µM): 0.704 | relative viability (SK-LU-1; first compound 0.5 µM): 0.738 | relative viability (NCI-H23; first compound 0.005 µM): 1.1 | relative viability (NCI-H23; first compound 0.01581 µM): 1.37 | relative viability (NCI-H23; first compound 0.05 µM): 1.09 | relative viability (NCI-H23; first compound 0.1581 µM): 0.858 | relative viability (NCI-H23; first compound 0.5 µM): 0.942 | relative viability (NCI-H2405; first compound 0.005 µM): 0.972 | relative viability (NCI-H2405; first compound 0.01581 µM): 1.28 | relative viability (NCI-H2405; first compound 0.05 µM): 1.1 | relative viability (NCI-H2405; first compound 0.1581 µM): 1.01 | relative viability (NCI-H2405; first compound 0.5 µM): 0.572 | relative viability (LU99A; first compound 0.005 µM): 0.914 | relative viability (LU99A; first compound 0.01581 µM): 0.924 | relative viability (LU99A; first compound 0.05 µM): 0.967 | relative viability (LU99A; first compound 0.5 µM): 0.919 | relative viability (NCI-H2126; first compound 0.005 µM): 0.686 | relative viability (NCI-H2126; first compound 0.01581 µM): 0.784 | relative viability (NCI-H2126; first compound 0.05 µM): 0.755 | relative viability (NCI-H2126; first compound 0.1581 µM): 0.559 | relative viability (NCI-H2126; first compound 0.5 µM): 0.774 | relative viability (EPLC-272H; first compound 0.005 µM): 0.854 | relative viability (EPLC-272H; first compound 0.01581 µM): 0.844 | relative viability (EPLC-272H; first compound 0.05 µM): 0.938 | relative viability (EPLC-272H; first compound 0.1581 µM): 0.806 | relative viability (EPLC-272H; first compound 0.5 µM): 0.671
